# Assay results from ChEMBL document CHEMBL5331047 (Eur J Med Chem, 2022).
# Legend:
# Neuraminidase = Neuraminidase (Influenza A virus (strain A/USSR/90/1977 H1N1), UniProt P03469, H274Y)
# [1] = Induction of drug resistance in influenza A virus H1N1 expressing neuraminidase I222R mutant assessed as reduction in susceptibility relative to control; type: functional; set-up: scale not given: the % may be the effect or the level left
# [2] = system: Neuraminidase (Influenza A virus (strain A/USSR/90/1977 H1N1)), P03469 [H274Y]; assay: Induction of drug resistance in influenza A virus H1N1 expressing neuraminidase H274Y mutant assessed as reduction in susceptibility relative to control; type: functional; set-up: scale not given: the % may be the effect or the level left
# [3] = Induction of drug resistance in influenza A virus H3N1 expressing neuraminidase N294S mutant assessed as reduction in susceptibility relative to control; type: functional; set-up: scale not given: the % may be the effect or the level left
# [4] = Induction of drug resistance in influenza A virus H1N1 expressing neuraminidase S246N mutant assessed as reduction in susceptibility relative to control; type: functional; set-up: scale not given: the % may be the effect or the level left
Compound,IC50 (Neuraminidase) [µM],Activity [1] [%],Activity [2] [%],Activity [3] [%],Activity [4] [%]
CC(=O)N[C@@H]1[C@@H](N)CC(C(=O)O)=C[C@H]1OC1CCSC1 (stereo not given in full),0.068,,,,
CCOC(=O)C1=C[C@@H](OC(CC)CC)[C@H](NC(C)=O)[C@@H](N)C1 [OSELTAMIVIR],,<3.5,< 3.5,<3.5,<3.5
